# In US4442044A, “Process for preparing monoesters and diesters of N-alkyl substituted amino methyl phosphonic acid” (priority 1983, dated 1984):
# How the values were obtained:
# Format in all cases: in vivo
# [1] = tested on: Cocklebur; assay: pre-emergent herbicidal activity, soil incorporation; details: Table III, 2 WAT, 11.2 kg/h
# Description: (§1) A good grade of top soil is placed in aluminum pans and compacted to a depth of 0.95 to 1.27 cm. from the top of each pan. A predetermined number of seeds or vegetative propagules of each of several plant species are placed on top of the soil in each pan and then pressed down. Herbicidal compositions prepared as in the previous example are applied by admixture with or incorporation in the top layer of soil.
# (§2) In this method, the soil required to cover the seeds and propagules is weighed and admixed with a herbicidal composition containing a known amount of the active ingredient (compound of this invention). The pans are then filled with the admixture and leveled. Watering is carried out by permitting the soil in the pans to absorb moisture through apertures in the pan bottoms. The seed and propagule containing pans are placed on a wet sand bench and maintained for approximately two weeks under ordinary conditions of sunlight and watering. At the end of this period, the number of emerged plants of each species is noted and compared to an untreated control.
# (§3) The pre-emergent herbicidal activity index used below is based upon average percent control of each species as follows: […]
# [2] = tested on: Lambsquarters; assay: as above; details: Table III, 2 WAT, 11.2 kg/h
# Description: as §1, §2, §3
# [3] = tested on: Velvetleaf; assay: as above; details: Table III, 2 WAT, 11.2 kg/h
# Description: as §1, §2, §3
# [4] = tested on: Smartweed; assay: as above; details: Table III, 2 WAT, 11.2 kg/h
# Description: as §1, §2, §3
# [5] = tested on: Quackgrass; assay: as above; details: Table III, 2 WAT, 11.2 kg/h
# Description: as §1, §2, §3
# [6] = tested on: Johnsongrass; assay: as above; details: Table III, 2 WAT, 11.2 kg/h
# Description: as §1, §2, §3
# [7] = tested on: Yellow Nutsedge; assay: as above; details: Table III, 2 WAT, 11.2 kg/h
# Description: as §1, §2, §3
# [8] = tested on: Morningglory; assay: as above; details: Table III, 2 WAT, 11.2 kg/h
# Description: as §1, §2, §3
# [9] = tested on: Canada Thistle; assay: as above; details: Table III, 2 WAT, 11.2 kg/h
# Description: as §1, §2, §3
# [10] = tested on: Barnyardgrass; assay: as above; details: Table III, 2 WAT, 11.2 kg/h
# Description: as §1, §2, §3
# [11] = tested on: Downy Brome; assay: as above; details: Table III, 2 WAT, 11.2 kg/h
# Description: as §1, §2, §3
# [12] = tested on: Cocklebur; assay: post-emergent herbicidal activity, greenhouse; details: Table II, 4 WAT
# In short: (§4)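 Seeds or propagules sown in compacted top soil, grown 2–3 weeks in greenhouse, then sprayed with compound solution/suspension containing ~0.4% emulsifier at tabulated rates. Injury scored visually versus untreated controls at ~2 and 4 weeks after treatment, expressed as a herbicidal activity index.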
# [13] = tested on: Lambsquarters; assay: post-emergent herbicidal activity, greenhouse; details: 4 WAT
# In short: as §4
# [14] = tested on: Rice; assay: post-emergent herbicidal activity, greenhouse; details: Table II, 4 WAT
# In short: as §4
# [15] = tested on: Wheat; assay: post-emergent herbicidal activity, greenhouse; details: Table II, 4 WAT
# In short: as §4
# [16] = tested on: Velvetleaf; assay: post-emergent herbicidal activity, greenhouse; details: 4 WAT
# In short: as §4
# [17] = tested on: Sorghum; assay: post-emergent herbicidal activity, greenhouse; details: Table II, 4 WAT
# In short: as §4
# [18] = tested on: Smartweed; assay: post-emergent herbicidal activity, greenhouse; details: 4 WAT
# In short: as §4
# [19] = tested on: Quackgrass; assay: post-emergent herbicidal activity, greenhouse; details: Table I, 4 WAT, 11.2 kg/h
# In short: as §4
# [20] = tested on: Yellow Nutsedge; assay: post-emergent herbicidal activity, greenhouse; details: Table I, 4 WAT, 5.6 kg/h
# In short: as §4
# [21] = tested on: Crabgrass; assay: post-emergent herbicidal activity, greenhouse; details: Table II, 4 WAT
# In short: as §4
# [22] = tested on: Hemp Sesbania; assay: post-emergent herbicidal activity, greenhouse; details: Table II, 4 WAT
# In short: as §4
# [23] = tested on: Sugar Beet; assay: post-emergent herbicidal activity, greenhouse; details: Table II, 4 WAT
# In short: as §4
# [24] = tested on: Morningglory; assay: post-emergent herbicidal activity, greenhouse; details: 4 WAT
# In short: as §4
# [25] = tested on: Barnyardgrass; assay: post-emergent herbicidal activity, greenhouse; details: 4 WAT
# In short: as §4
# [26] = tested on: Soybean; assay: post-emergent herbicidal activity, greenhouse; details: Table II, 4 WAT
# In short: as §4
# [27] = tested on: Panicum Spp; assay: post-emergent herbicidal activity, greenhouse; details: Table II, 4 WAT
# In short: as §4
# [28] = tested on: Wild Buckwheat; assay: post-emergent herbicidal activity, greenhouse; details: Table II, 4 WAT
# In short: as §4
# [29] = tested on: Downy Brome; assay: post-emergent herbicidal activity, greenhouse; details: Table II, 4 WAT
# In short: as §4
smiles,measurement,setting,value
"CCOC(=O)CNCP(=O)(O)OC(C)C#N (stereo not drawn) [Example 5, glycine, N-[[(1-cyanoethoxy)hydroxy-phosphinyl]methyl]ethyl ester]",pre-emergent herbicidal activity index,[1],0 (1-24% control)
same,pre-emergent herbicidal activity index,[2],3 (75-100% control)
same,pre-emergent herbicidal activity index,[3],0 (1-24% control)
same,pre-emergent herbicidal activity index,[4],0 (1-24% control)
same,pre-emergent herbicidal activity index,[5],2 (50-74% control)
same,pre-emergent herbicidal activity index,[6],0 (1-24% control)
same,pre-emergent herbicidal activity index,[7],1 (25-49% control)
same,pre-emergent herbicidal activity index,[8],0 (1-24% control)
same,pre-emergent herbicidal activity index,[9],3 (75-100% control)
same,pre-emergent herbicidal activity index,[10],0 (1-24% control)
same,pre-emergent herbicidal activity index,[11],0 (1-24% control)
same,post-emergent herbicidal activity index,[12]; 0.28 kg/h,2 (50-74% control)
same,post-emergent herbicidal activity index,[12]; 1.12 kg/h,2 (50-74% control)
same,post-emergent herbicidal activity index,[12]; 5.6 kg/h,4 (100% control)
same,post-emergent herbicidal activity index,"[13]; Table I, 11.2 kg/h",4 (100% control)
same,post-emergent herbicidal activity index,"[13]; Table II, 0.28 kg/h",2 (50-74% control)
same,post-emergent herbicidal activity index,"[13]; Table II, 1.12 kg/h",4 (100% control)
same,post-emergent herbicidal activity index,"[13]; Table II, 5.6 kg/h",4 (100% control)
same,post-emergent herbicidal activity index,[14]; 0.28 kg/h,0 (0-24% control)
same,post-emergent herbicidal activity index,[14]; 1.12 kg/h,2 (50-74% control)
same,post-emergent herbicidal activity index,[14]; 5.6 kg/h,4 (100% control)
same,post-emergent herbicidal activity index,[15]; 0.28 kg/h,1 (25-49% control)
same,post-emergent herbicidal activity index,[15]; 1.12 kg/h,3 (75-99% control)
same,post-emergent herbicidal activity index,[15]; 5.6 kg/h,4 (100% control)
same,post-emergent herbicidal activity index,"[16]; Table I, 11.2 kg/h",4 (100% control)
same,post-emergent herbicidal activity index,"[16]; Table II, 0.28 kg/h",1 (25-49% control)
same,post-emergent herbicidal activity index,"[16]; Table II, 1.12 kg/h",2 (50-74% control)
same,post-emergent herbicidal activity index,"[16]; Table II, 5.6 kg/h",4 (100% control)
same,post-emergent herbicidal activity index,[17]; 0.28 kg/h,3 (75-99% control)
same,post-emergent herbicidal activity index,[17]; 1.12 kg/h,3 (75-99% control)
same,post-emergent herbicidal activity index,[17]; 5.6 kg/h,4 (100% control)
same,post-emergent herbicidal activity index,"[18]; Table I, 5.6 kg/h",4 (100% control)
same,post-emergent herbicidal activity index,"[18]; Table I, 11.2 kg/h",4 (100% control)
same,post-emergent herbicidal activity index,"[18]; Table II, 0.28 kg/h",2 (50-74% control)
same,post-emergent herbicidal activity index,"[18]; Table II, 1.12 kg/h",4 (100% control)
same,post-emergent herbicidal activity index,"[18]; Table II, 5.6 kg/h",4 (100% control)
same,post-emergent herbicidal activity index,[19],4 (100% control)
same,post-emergent herbicidal activity index,[20],3 (75-99% control)
same,post-emergent herbicidal activity index,[21]; 0.28 kg/h,3 (75-99% control)
same,post-emergent herbicidal activity index,[21]; 1.12 kg/h,4 (100% control)
same,post-emergent herbicidal activity index,[21]; 5.6 kg/h,4 (100% control)
same,post-emergent herbicidal activity index,[22]; 0.28 kg/h,1 (25-49% control)
same,post-emergent herbicidal activity index,[22]; 1.12 kg/h,2 (50-74% control)
same,post-emergent herbicidal activity index,[22]; 5.6 kg/h,3 (75-99% control)
same,post-emergent herbicidal activity index,[23]; 0.28 kg/h,1 (25-49% control)
same,post-emergent herbicidal activity index,[23]; 1.12 kg/h,2 (50-74% control)
same,post-emergent herbicidal activity index,[23]; 5.6 kg/h,4 (100% control)
same,post-emergent herbicidal activity index,"[24]; Table I, 5.6 kg/h",3 (75-99% control)
same,post-emergent herbicidal activity index,"[24]; Table I, 11.2 kg/h",4 (100% control)
same,post-emergent herbicidal activity index,"[24]; Table II, 0.28 kg/h",2 (50-74% control)
same,post-emergent herbicidal activity index,"[24]; Table II, 1.12 kg/h",2 (50-74% control)
same,post-emergent herbicidal activity index,"[24]; Table II, 5.6 kg/h",4 (100% control)
same,post-emergent herbicidal activity index,"[25]; Table I, 5.6 kg/h",4 (100% control)
same,post-emergent herbicidal activity index,"[25]; Table I, 11.2 kg/h",4 (100% control)
same,post-emergent herbicidal activity index,"[25]; Table II, 0.28 kg/h",3 (75-99% control)
same,post-emergent herbicidal activity index,"[25]; Table II, 1.12 kg/h",3 (75-99% control)
same,post-emergent herbicidal activity index,"[25]; Table II, 5.6 kg/h",4 (100% control)
same,post-emergent herbicidal activity index,[26]; 0.28 kg/h,1 (25-49% control)
same,post-emergent herbicidal activity index,[26]; 1.12 kg/h,2 (50-74% control)
same,post-emergent herbicidal activity index,[26]; 5.6 kg/h,4 (100% control)
same,post-emergent herbicidal activity index,[27]; 0.28 kg/h,3 (75-99% control)
same,post-emergent herbicidal activity index,[27]; 1.12 kg/h,4 (100% control)
same,post-emergent herbicidal activity index,[27]; 5.6 kg/h,4 (100% control)
same,post-emergent herbicidal activity index,[28]; 0.28 kg/h,0 (0-24% control)
same,post-emergent herbicidal activity index,[28]; 1.12 kg/h,2 (50-74% control)
same,post-emergent herbicidal activity index,[28]; 5.6 kg/h,4 (100% control)
same,post-emergent herbicidal activity index,[29]; 0.28 kg/h,1 (25-49% control)
same,post-emergent herbicidal activity index,[29]; 1.12 kg/h,2 (50-74% control)
same,post-emergent herbicidal activity index,[29]; 5.6 kg/h,3 (75-99% control)
